Reference: patent publication US4666842A, “Novel aldehyde oxidase and process for producing same” (Kyowa Hakko Kogyo Co., Inc., priority 1982, dated 1987)
“Also recorded” adds a separate entry of the source. Read-outs that look alike come from different tables or passages of the source.

What was measured:
[1] = system: aldehyde oxidase (the present enzyme); assay: Substrate specificity of the present aldehyde oxidase; format: biochemical, Pseudomonas sp No. 6233; conditions: for Relative activity (substrate specificity): purified enzyme of Example 1, formaldehyde = 100%
Protocol: (§1) The amount of enzyme for decomposing 1 μmol of acetaldehyde in the presence of oxygen at 37° C. in one minute is designated as one unit. Specific activity is expressed by unit per mg of protein. The amount of enzyme protein is measured according to the method of O. H. Lowry, N. J. Rosebrough, A. L. Farr and R. J. Randall, J. Biol. Chem., 193 265(1951) using a copper-Folin reagent.
(§2) The enzyme activity can be measured by allowing the hydrogen peroxide formed from acetaldehyde by the action of the enzyme to react with 4-aminoantipyrine and phenol in the presence of a peroxidase and by quantitatively determining the amount of quinoneimine formed. The reaction is illustrated by the following equations (1) and (2): [drawing 1]
(§3) The above reagents (1)-(6) are put into a test tube, thoroughly shaken, and left standing at 37° C. for 5 minutes. Then, the enzyme solution (7) is added to the test tube to make up a total volume of 3 ml, and the test tube is shaken at 37° C. for 10 minutes to complete the reaction. As a control, the procedure is repeated using water in place of the substrate. The absorbancies of the reaction solution and control at 500 nm are measured, and the difference between the absorbancies is obtained as ΔO.D.
(§4) One unit of aldehyde oxidase is the amount of enzyme for decomposing 1 μmole of acetaldehyde at 37° C. in one minute. The absorbancy coefficient of 1 mM quinoneimine is reported in Clin. Chem., 20, 470(1974) to be 5.33. Therefore, if the absorbancy (ΔO.D.) of 3 ml of the reaction solution at 500 nm as obtained in the procedure (C) is designation as a, titer (A) per ml of the enzyme solution can be given as follows: [formula]
(§5) II. Physical and chemical properties of the aldehyde oxidase of the present invention are described below (hereinafter, the aldehyde oxidase will be sometimes referred to merely as "the present enzyme"). A purified enzyme prepared in Example 1 is used as the aldehyde oxidase.
For example, formaldehyde, acetaldehyde and glyceraldehyde are oxidized to formic acid, acetic acid and glyceric acid respectively. The present enzyme acts upon a wide range of aldehydes, for example, saturated aliphatic aldehydes such as formaldehyde, acetaldehyde, propionaldehyde, n-valeraldehyde, n-hexylaldehyde, heptylaldehyde, etc.; unsaturated aliphatic aldehydes such as crotonaldehyde, citral, etc.; aromatic aldehydes such as benzaldehyde, etc.; D- or L-glyceraldehyde, etc.
In the following Table 1, the relative activity of the present enzyme upon various substrates is set forth.

[2] = system: aldehyde oxidase (the present enzyme); format: biochemical, Pseudomonas sp No. 6233
Protocol: as §1, §2, §3, §4, §5
The present enzyme is inhibited by mercuric chloride and p-chloromercuriphenylsulfonic acid, and thus it appears that an SH group takes part in the reaction.

[3] = molecular target: T1, aldehyde oxidase of animal origin (Oryctolagus cuniculus, UniProt P80456); conditions: known enzyme, literature; cited from earlier work
T1 sequence (P80456 1-1334): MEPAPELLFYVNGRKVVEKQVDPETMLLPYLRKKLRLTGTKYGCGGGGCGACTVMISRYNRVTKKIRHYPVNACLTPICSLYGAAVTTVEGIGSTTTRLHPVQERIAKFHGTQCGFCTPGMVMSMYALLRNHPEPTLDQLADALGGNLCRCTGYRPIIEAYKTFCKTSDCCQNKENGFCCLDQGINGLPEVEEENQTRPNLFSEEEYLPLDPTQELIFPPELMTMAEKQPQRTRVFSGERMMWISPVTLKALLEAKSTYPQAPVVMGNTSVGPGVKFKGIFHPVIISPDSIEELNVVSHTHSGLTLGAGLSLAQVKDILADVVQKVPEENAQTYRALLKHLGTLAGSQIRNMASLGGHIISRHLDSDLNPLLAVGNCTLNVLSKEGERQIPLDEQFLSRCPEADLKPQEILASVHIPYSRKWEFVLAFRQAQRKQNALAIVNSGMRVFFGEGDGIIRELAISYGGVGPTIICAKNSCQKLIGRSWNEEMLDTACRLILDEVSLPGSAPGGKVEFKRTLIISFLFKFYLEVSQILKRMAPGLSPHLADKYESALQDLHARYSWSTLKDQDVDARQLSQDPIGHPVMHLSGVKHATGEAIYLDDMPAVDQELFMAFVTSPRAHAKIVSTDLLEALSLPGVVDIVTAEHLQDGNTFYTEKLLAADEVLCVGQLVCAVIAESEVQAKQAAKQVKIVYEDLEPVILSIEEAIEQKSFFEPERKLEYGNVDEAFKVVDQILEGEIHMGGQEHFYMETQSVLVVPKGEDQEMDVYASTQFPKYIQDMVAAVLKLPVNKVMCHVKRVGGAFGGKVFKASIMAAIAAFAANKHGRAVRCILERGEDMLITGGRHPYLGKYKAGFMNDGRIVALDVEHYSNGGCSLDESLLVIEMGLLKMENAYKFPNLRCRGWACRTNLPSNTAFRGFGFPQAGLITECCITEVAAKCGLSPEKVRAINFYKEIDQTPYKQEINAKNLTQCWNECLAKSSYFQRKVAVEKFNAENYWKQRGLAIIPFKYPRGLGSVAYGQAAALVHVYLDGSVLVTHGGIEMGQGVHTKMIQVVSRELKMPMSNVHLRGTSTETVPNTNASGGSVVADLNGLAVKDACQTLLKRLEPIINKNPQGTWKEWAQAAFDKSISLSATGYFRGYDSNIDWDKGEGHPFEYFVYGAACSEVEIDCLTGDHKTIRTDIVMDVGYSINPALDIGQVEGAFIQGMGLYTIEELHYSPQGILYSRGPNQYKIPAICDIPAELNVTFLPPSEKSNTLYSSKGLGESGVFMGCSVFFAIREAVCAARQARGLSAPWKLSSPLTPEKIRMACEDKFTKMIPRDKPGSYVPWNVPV

[4] = molecular target: T1, aldehyde oxidase of animal origin; format: biochemical
From the text: *aldehyde oxidase of animal origin for comparison purposes.

[5] = concentration 0.1 mM, none = 100

Row | Molecule | action of the present enzyme upon the substrate [1] | Relative activity (substrate specificity) [1] | also measured
1 | CC=O [Acetaldehyde] | acts upon | 266% | –
2 | [Ba+2].[Cl-].[Cl-] [BaCl2] | – | – | Relative activity (%) [2, 5]: 87%
3 | O=Cc1ccccc1 [Benzaldehyde] | acts upon | 93% | –
4 | CC(=O)O [Ca(CH3 COO)2] | – | – | Relative activity (%) ([2]; 1000 µM): 109%
5 | CC(C)=CCCC(C)=CC=O [Citral] | acts upon | 291% | –
6 | [Cl-].[Cl-].[Co+2] [CoCl2] | – | – | Relative activity (%) ([2]; concentration 1 mM, none = 100): 104%
7 | C/C=C/C=O [Crotonaldehyde] | acts upon | 260% | –
8 | O=S(=O)([O-])[O-].[Cu+2] [CuSO4] | – | – | Relative activity (%) [2, 5]: 20%
9 | O=C[C@H](O)CO [D-Glyceraldehyde] | acts upon | 270% | –
10 | CCO [Ethanol] | does not act upon | 0% | –
11 | O=S(=O)([O-])[O-].[Fe+2] [FeSO4] | – | – | Relative activity (%) [2, 5]: 100%
12 | C=O [Formaldehyde] | acts upon | 100% | –
13 | CCCCCCC=O [Heptylaldehyde] | acts upon | 387% | –
14 | [Cl][Hg][Cl] [HgCl2, mercuric chloride] | – | – | Relative activity (%) [2, 5]: 0%; inhibition of the present enzyme [2]: inhibited
15 | NO [Hydroxylamine] | – | – | Relative activity (%) ([2]; concentration 1 mM, none = 100): 110%
16 | O=c1[nH]cnc2nc[nH]c12 [Hypoxanthine] | does not have any catalytic action | 0% | action of aldehyde oxidase of animal origin upon the substrate [3]: acts upon
17 | O=C[C@@H](O)CO [L-Glyceraldehyde] | acts upon | 23% | –

Row | Molecule | action of the present enzyme upon the substrate [1] | Relative activity (substrate specificity) [1] | also measured
18 | CO [Methanol] | does not act upon | 0% | –
19 | O=S(=O)([O-])[O-].[Mg+2] [MgSO4] | – | – | Relative activity (%) ([2]; concentration 1 mM, none = 100): 97%
20 | [Cl][Mn][Cl] [MnCl2] | – | – | Relative activity (%) ([2]; concentration 1 mM, none = 100): 106%
21 | C[n+]1cccc(C(N)=O)c1 [N'--Methylnicotinamide] | does not act upon | 0% | –
22 | c1cnc2c(c1)ccc1cccnc12 [O--Phenanthroline] | – | – | Relative activity (%) ([2]; concentration 1 mM, none = 100): 103%
23 | CCC=O [Propionaldehyde] | acts upon | 285% | –
24 | c1ncc2[nH]cnc2n1 [Purine] | does not have any catalytic action | 0% | action of aldehyde oxidase of animal origin upon the substrate [3]: acts upon
25 | C=C[C@H]1C[N@@]2CC[C@H]1C[C@H]2[C@H](O)c1ccnc2ccc(OC)cc12 [Quinine] | does not have any catalytic action; also recorded: does not act upon | 0% | –
26 | c1ccc2ncccc2c1 [Quinoline] | does not act upon | 0% | –
27 | ON=Cc1ccccc1O [Salicylaldoxime] | – | – | Relative activity (%) ([2]; 1000 µM): 91%
28 | [Cl-].[Cl-].[Sr+2] [SrCl2] | – | – | Relative activity (%) ([2]; concentration 1 mM, none = 100): 94%
29 | [Cl-].[Cl-].[Zn+2] [ZnCl2] | – | – | Relative activity (%) ([2]; concentration 1 mM, none = 100): 103%
30 | CCCCCC=O [n-Hexylaldehyde] | acts upon | 390% | –
31 | CCCCC=O [n-Valeraldehyde] | acts upon | 367% | –
32 | O=S(=O)(O)c1cc[c]([Hg][Cl])cc1 [p-Chloromercuriphenylsulfonic acid, p-chloromercuriphenylsulfonic acid] | – | – | Relative activity (%) [2, 5]: 0%; inhibition of the present enzyme [2]: inhibited
33 | c1ccc(-c2ccccn2)nc1 [α, α'-Dipyridyl] | – | – | Relative activity (%) ([2]; concentration 1 mM, none = 100): 85%
34 | Antimycin A | – | – | Relative activity (%), aldehyde oxidase of animal origin ([4]; concentration 2 × 10^-3 mM, value in brackets, for comparison, 2 µM): 38%; inhibition of the known aldehyde oxidase of animal origin ([4]; known aldehyde oxidase): strongly inhibited; Relative activity (%) ([2]; concentration 2 × 10^-3 mM, none = 100, 2 µM): 94%; inhibition of the present enzyme [2]: not strongly inhibited
